Results taken from patent US11357760B2, “Method of treating liver fibrosis” (ChemoCentryx, Inc., priority 2016, dated 2022).

Experiments:
[1] = tested on: MCD-induced NASH model; assay: Methionine-choline deficient (MCD) induced NASH model; format: in vivo, mice C57Bl/6; settings: Compound 1 subcutaneously, CVC orally; for serum ALT levels: FIG. 5; for trough drug level: 30 mg/kg
Method: (§1) Compound 1 was administered subcutaneously to maintain high systemic levels. […] Formalin-fixed, paraffin-embedded liver sections were stained separately with hematoxylin & eosin (H&E) and for Sirius red Picrosirius red (#365548, Sigma) and evaluated for severity of liver fibrosis. All pathologic evaluations were made by a pathologist on a random and blinded basis. Collagen surface density was quantified using Image J (NIH). Two Sirius red-stained slides per animal were taken at different depth, with 18 images taken randomly per slide for a total of 36 images per animal for collagen quantification. Liver enzymes were assayed by Antech GLP (Morrisville, N.C.). Insulin was measured with Ultrasensitive. Mouse Insulin ELISA kit (Crystal Chem Inc: #90080); Blood glucose and insulin levels were determined after an overnight fast (14-16 h). Insulin sensitivity was determined by the homeostatic model assessment of insulin resistance (HOMA-IR). Lipids were measured in the serum and liver with a Triglyceride Colorimetric Assay kit (Cayman Chemical Company: #10010303), a Free Fatty Acid Quantification kit, (Abcam, ab65341) and Cholesterol Quantification kit (Abcam, ab65359).

[2] = target: CCR5 (Homo sapiens, UniProt P51681); settings: summary of Table 1
CCR5, sequence (P51681 whole entry, species assumed): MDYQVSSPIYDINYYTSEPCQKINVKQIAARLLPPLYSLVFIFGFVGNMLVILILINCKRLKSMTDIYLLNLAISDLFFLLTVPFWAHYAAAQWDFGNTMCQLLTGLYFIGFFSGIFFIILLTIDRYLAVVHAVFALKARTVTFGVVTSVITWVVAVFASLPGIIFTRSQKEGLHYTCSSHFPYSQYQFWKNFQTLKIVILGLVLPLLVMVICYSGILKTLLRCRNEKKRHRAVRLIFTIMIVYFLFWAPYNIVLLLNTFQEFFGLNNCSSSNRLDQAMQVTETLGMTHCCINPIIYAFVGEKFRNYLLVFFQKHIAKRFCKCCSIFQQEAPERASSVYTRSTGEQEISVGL
Method: A conventional migration assay was used to determine the efficacy of potential receptor antagonists in blocking migration mediated through MIP1b. This assay was routinely performed using the ChemoTX® (Neuroprobe) microchamber system with a 5-mum pore-sized polycarbonate membrane. CCR5 expressing cells (IL-2 Lymphocytes or L1.2CCR5 cells) were harvested by centrifugation of cell suspension at 1000 RPM on a GS-6R Beckman centrifuge. […] An equal volume of cells and compounds were mixed and incubated at room temperature for 15 minutes. Afterwards, 20 μl of the mixture was transferred onto the porous membrane of a migration microchamber, with 29 μl of MIP1b ligand (0.1 nM MIP1b protein) placed at the lower chamber. Following incubation at 37 degrees centigrade (90-minute), the assay was terminated by removing the cell drops from atop the filter. To quantify cells migrated across the membrane, 5 mul_ of 7× CyQUANT® (ThermoFisher) solution was added to each well in the lower chamber, and the fluorescence signal measured on a Spectrafluor Plus fluorescence plate reader (TECAN, Durham, N.C.). The degree of inhibition was determined by comparing migration signals between compound-treated and untreated cells. IC50 calculation was further performed by non-linear squares regression analysis using Graphpad Prism (Graphpad Software, San Diego, Calif.).

[3] = tested on: HFD/fructose-induced NASH model; assay: High fat diet (HFD)/fructose-induced NASH model; format: in vivo, mice C57Bl/6; settings: 30 mg/kg subcutaneously once per day for 8 weeks
Description: as §1, with “Male wild-type (WT) mice C57Bl/6 were obtained from Jackson Laboratory and fed either with high-fat diet (D12492, 60 Cal % fat, Research Diets, New Brunswick, N.J.) with 30% fructose in the drink water or a lean control diet (D12450B, 10 Cal % fat, Research Diets) at 6-8 week of age and maintained on the respective diet for the duration of the study (16-32 weeks). […] Sirius red-staining” for “Compound 1”, “used” for “administered subcutaneously”, “evaluate the severity of liver fibrosis.” for “maintain high systemic levels.”

trough drug level [1] | CCR5 inhibition (in words) [2] | SMILES | serum ALT levels ([1]; 30 mg/kg for 8 weeks) | change in body weight compared to vehicle ([3]; FIG. 1) | serum ALT levels ([3]; FIG. 2) | serum AST levels ([3]; FIG. 2) | percentage of Sirius red staining (liver fibrosis) compared to vehicle ([3]; FIG. 4) | Sirius red-positive staining (liver fibrosis) ([1]; 30 mg/kg for 8 weeks, FIG. 6)
over IC50 | potent CCR5 inhibitor | CCCCOCCOc1ccc(-c2ccc3c(c2)/C=C(/C(=O)Nc2ccc([S@@+]([O-])Cc4cncn4CCC)cc2)CCCN3CC(C)C)cc1 [CVC, cenicriviroc, reference compound] | does not |  |  |  |  | 
over IC50 |  | Cc1cnc(C(=O)c2ccnc3[nH]ccc23)c(NS(=O)(=O)c2ccc(Cl)c(C(F)(F)F)c2)c1 [Compound 1] | significantly reduces | did not change | reduced | reduced | reduced | reduces
